Assay results as given in ChEMBL document CHEMBL2440076, “New triarylpyrazoles as broad-spectrum anticancer agents: design, synthesis, and biological evaluation” (Eur J Med Chem, 2013).

What was measured:
Format in all cases: functional
KM12 [1] = assay: Growth inhibition of human KM12 cells assessed as cell growth at 10^-7 M after 48 hrs by sulforhodamine B assay; settings: KM12, 48 h, read-out: Activity
HCT-15 [2] = assay: Growth inhibition of human HCT15 cells assessed as cell growth at 10^-7 M after 48 hrs by sulforhodamine B assay; settings: HCT-15, 48 h, read-out: Activity
NCI-H322M = assay: Growth inhibition of human NCI-H322M cells assessed as cell growth at 10^-7 M after 48 hrs by sulforhodamine B assay; settings: read-out: Activity
BT-549 [3] = assay: Growth inhibition of human BT549 cells assessed as cell growth at 10^-4 M after 48 hrs by sulforhodamine B assay; settings: BT-549, 48 h, read-out: Activity
MDA-MB-231 [4] = assay: Growth inhibition of human MDA-MB-231 cells assessed as cell growth at 10^-4 M after 48 hrs by sulforhodamine B assay; settings: MDA-MB-231, 48 h, read-out: Activity
MCF7 [5] = assay: Growth inhibition of human MCF7 cells assessed as cell growth at 10^-4 M after 48 hrs by sulforhodamine B assay; settings: MCF7, 48 h, read-out: Activity
[6] = Growth inhibition of human Hs 578T cells assessed as cell growth at 10^-8 M after 48 hrs by sulforhodamine B assay; settings: read-out: Activity
IGROV-1 = assay: Growth inhibition of human IGROV1 cells assessed as cell growth at 10^-4 M after 48 hrs by sulforhodamine B assay; settings: IGROV-1, 48 h, read-out: Activity
LOX IMVI = assay: Growth inhibition of human LOXIMVI cells assessed as cell growth at 10^-4 M after 48 hrs by sulforhodamine B assay; settings: read-out: Activity
SNB-75 = assay: Growth inhibition of human SNB75 cells assessed as cell growth at 10^-4 M after 48 hrs by sulforhodamine B assay; settings: SNB-75, 48 h, read-out: Activity
SN12C [7] = assay: Growth inhibition of human SN12C cells assessed as cell growth at 10^-8 M after 48 hrs by sulforhodamine B assay; settings: read-out: Activity
SK-OV-3 = assay: Growth inhibition of human SKOV3 cells assessed as cell growth at 10^-8 M after 48 hrs by sulforhodamine B assay; settings: SK-OV-3, 48 h, read-out: Activity
OVCAR-4 = assay: Growth inhibition of human OVCAR4 cells assessed as cell growth at 10^-8 M after 48 hrs by sulforhodamine B assay; settings: OVCAR-4, 48 h, read-out: Activity
SK-MEL-28 [8] = assay: Growth inhibition of human SK-MEL-28 cells assessed as cell growth at 10^-8 M after 48 hrs by sulforhodamine B assay; settings: SK-MEL-28, 48 h, read-out: Activity
SNB-19 = assay: Growth inhibition of human SNB19 cells assessed as cell growth at 10^-8 M after 48 hrs by sulforhodamine B assay; settings: SNB-19, 48 h, read-out: Activity
HCT-15 [9] = assay: Growth inhibition of human HCT15 cells assessed as cell growth at 10^-8 M after 48 hrs by sulforhodamine B assay; settings: HCT-15, 48 h, read-out: Activity
HOP-92 [10] = assay: Growth inhibition of human HOP92 cells assessed as cell growth at 10^-4 M after 48 hrs by sulforhodamine B assay; settings: HOP-92, 48 h, read-out: Activity
HL-60(TB) = assay: Growth inhibition of human HL-60(TB) cells assessed as cell growth at 10^-4 M after 48 hrs by sulforhodamine B assay; settings: HL-60, 48 h, read-out: Activity
T47D = assay: Growth inhibition of human T47D cells assessed as cell growth at 10^-5 M after 48 hrs by sulforhodamine B assay; settings: read-out: Activity
BT-549 [11] = assay: Growth inhibition of human BT549 cells assessed as cell growth at 10^-5 M after 48 hrs by sulforhodamine B assay; settings: BT-549, 48 h, read-out: Activity
MDA-MB-231 [12] = assay: Growth inhibition of human MDA-MB-231 cells assessed as cell growth at 10^-5 M after 48 hrs by sulforhodamine B assay; settings: MDA-MB-231, 48 h, read-out: Activity
RXF 393 = assay: Growth inhibition of human RXF393 cells assessed as cell growth at 10^-5 M after 48 hrs by sulforhodamine B assay; settings: RXF 393, 48 h, read-out: Activity
SK-MEL-28 [13] = assay: Growth inhibition of human SK-MEL-28 cells assessed as cell growth at 10^-5 M after 48 hrs by sulforhodamine B assay; settings: SK-MEL-28, 48 h, read-out: Activity
SF-539 = assay: Growth inhibition of human SF539 cells assessed as cell growth at 10^-5 M after 48 hrs by sulforhodamine B assay; settings: SF-539, 48 h, read-out: Activity
KM12 [14] = assay: Growth inhibition of human KM12 cells assessed as cell growth at 10^-5 M after 48 hrs by sulforhodamine B assay; settings: KM12, 48 h, read-out: Activity
NCI-H226 = assay: Growth inhibition of human NCI-H226 cells assessed as cell growth at 10^-5 M after 48 hrs by sulforhodamine B assay; settings: NCI-H226, 48 h, read-out: Activity
HOP-92 [15] = assay: Growth inhibition of human HOP92 cells assessed as cell growth at 10^-5 M after 48 hrs by sulforhodamine B assay; settings: HOP-92, 48 h, read-out: Activity
BT-549 [16] = assay: Growth inhibition of human BT549 cells assessed as cell growth at 10^-6 M after 48 hrs by sulforhodamine B assay; settings: BT-549, 48 h, read-out: Activity
MCF7 [17] = assay: Growth inhibition of human MCF7 cells assessed as cell growth at 10^-6 M after 48 hrs by sulforhodamine B assay; settings: MCF7, 48 h, read-out: Activity
UACC-62 [18] = assay: Growth inhibition of human UACC62 cells assessed as cell growth at 10^-6 M after 48 hrs by sulforhodamine B assay; settings: UACC-62, 48 h, read-out: Activity
SK-MEL-5 [19] = assay: Growth inhibition of human SK-MEL-5 cells assessed as cell growth at 10^-6 M after 48 hrs by sulforhodamine B assay; settings: SK-MEL-5, 48 h, read-out: Activity
MOLT-4 = assay: Growth inhibition of human MOLT4 cells assessed as cell growth at 10^-6 M after 48 hrs by sulforhodamine B assay; settings: MOLT-4, 48 h, read-out: Activity
MCF7 [20] = assay: Growth inhibition of human MCF7 cells assessed as cell growth at 10^-7 M after 48 hrs by sulforhodamine B assay; settings: MCF7, 48 h, read-out: Activity
PC-3 = assay: Growth inhibition of human PC3 cells assessed as cell growth at 10^-7 M after 48 hrs by sulforhodamine B assay; settings: PC-3, 48 h, read-out: Activity
SN12C [21] = assay: Growth inhibition of human SN12C cells assessed as cell growth at 10^-7 M after 48 hrs by sulforhodamine B assay; settings: read-out: Activity
ACHN = assay: Growth inhibition of human ACHN cells assessed as cell growth at 10^-7 M after 48 hrs by sulforhodamine B assay; settings: read-out: Activity
UACC-62 [22] = assay: Growth inhibition of human UACC62 cells assessed as cell growth at 10^-7 M after 48 hrs by sulforhodamine B assay; settings: UACC-62, 48 h, read-out: Activity
SK-MEL-5 [23] = assay: Growth inhibition of human SK-MEL-5 cells assessed as cell growth at 10^-7 M after 48 hrs by sulforhodamine B assay; settings: SK-MEL-5, 48 h, read-out: Activity
M14 = assay: Growth inhibition of human M14 cells assessed as cell growth at 10^-7 M after 48 hrs by sulforhodamine B assay; settings: M14, 48 h, read-out: Activity

Structure (SMILES): COc1cc(-c2nn(-c3cccc(NC(=O)c4ccc(N5CCOCC5)c(C(F)(F)F)c4)c3)cc2-c2ccncc2)ccc1Cl
- growth at 0.1 µM (KM12 [1]): 64%
- growth at 0.1 µM (HCT-15 [2]): 65%
- growth at 0.1 µM (NCI-H322M): 100%
- growth at 100 µM (BT-549 [3]): 9%
- growth at 100 µM (MDA-MB-231 [4]): -30%
- growth at 100 µM (MCF7 [5]): 8%
- growth at 0.01 µM [6]: 96%
- growth at 100 µM (IGROV-1): -15%
- growth at 100 µM (LOX IMVI): -34%
- growth at 100 µM (SNB-75): 2%
- growth at 0.01 µM (SN12C [7]): 95%
- growth at 0.01 µM (SK-OV-3): 103%
- growth at 0.01 µM (OVCAR-4): 97%
- growth at 0.01 µM (SK-MEL-28 [8]): 100%
- growth at 0.01 µM (SNB-19): 92%
- growth at 0.01 µM (HCT-15 [9]): 98%
- growth at 100 µM (HOP-92 [10]): -30%
- growth at 100 µM (HL-60(TB)): 6%
- growth at 10 µM (T47D): 19%
- growth at 10 µM (BT-549 [11]): 25%
- growth at 10 µM (MDA-MB-231 [12]): -30%
- growth at 10 µM (RXF 393): -41%
- growth at 10 µM (SK-MEL-28 [13]): 14%
- growth at 10 µM (SF-539): -54%
- growth at 10 µM (KM12 [14]): -6%
- growth at 10 µM (NCI-H226): 15%
- growth at 10 µM (HOP-92 [15]): -26%
- growth at 1 µM (BT-549 [16]): 54%
- growth at 1 µM (MCF7 [17]): 18%
- growth at 1 µM (UACC-62 [18]): 42%
- growth at 1 µM (SK-MEL-5 [19]): -11%
- growth at 1 µM (MOLT-4): 38%
- growth at 0.1 µM (MCF7 [20]): 76%
- growth at 0.1 µM (PC-3): 73%
- growth at 0.1 µM (SN12C [21]): 90%
- growth at 0.1 µM (ACHN): 83%
- growth at 0.1 µM (UACC-62 [22]): 56%
- growth at 0.1 µM (SK-MEL-5 [23]): 53%
- growth at 0.1 µM (M14): 76%

Structure (SMILES): COc1cc(-c2nn(-c3cccc(NC(=O)c4ccccc4)c3)cc2-c2ccncc2)ccc1Cl
- growth at 0.1 µM (KM12 [1]): 91%
- growth at 0.1 µM (HCT-15 [2]): 96%
- growth at 0.1 µM (NCI-H322M): 85%
- growth at 100 µM (BT-549 [3]): 28%
- growth at 100 µM (MDA-MB-231 [4]): -42%
- growth at 100 µM (MCF7 [5]): 7%
- growth at 0.01 µM [6]: 103%
- growth at 100 µM (IGROV-1): 17%
- growth at 100 µM (LOX IMVI): 7%
- growth at 100 µM (SNB-75): 11%
- growth at 0.01 µM (SN12C [7]): 96%
- growth at 0.01 µM (SK-OV-3): 97%
- growth at 0.01 µM (OVCAR-4): 93%
- growth at 0.01 µM (SK-MEL-28 [8]): 99%
- growth at 0.01 µM (SNB-19): 99%
- growth at 0.01 µM (HCT-15 [9]): 97%
- growth at 100 µM (HOP-92 [10]): -15%
- growth at 100 µM (HL-60(TB)): 16%
- growth at 10 µM (T47D): 31%
- growth at 10 µM (BT-549 [11]): 26%
- growth at 10 µM (MDA-MB-231 [12]): 7%
- growth at 10 µM (RXF 393): -9%
- growth at 10 µM (SK-MEL-28 [13]): 43%
- growth at 10 µM (SF-539): -25%
- growth at 10 µM (KM12 [14]): 10%
- growth at 10 µM (NCI-H226): 26%
- growth at 10 µM (HOP-92 [15]): -8%
- growth at 1 µM (BT-549 [16]): 53%
- growth at 1 µM (MCF7 [17]): 17%
- growth at 1 µM (UACC-62 [18]): 41%
- growth at 1 µM (SK-MEL-5 [19]): 10%
- growth at 1 µM (MOLT-4): 41%
- growth at 0.1 µM (MCF7 [20]): 87%
- growth at 0.1 µM (PC-3): 86%
- growth at 0.1 µM (SN12C [21]): 98%
- growth at 0.1 µM (ACHN): 95%
- growth at 0.1 µM (UACC-62 [22]): 96%
- growth at 0.1 µM (SK-MEL-5 [23]): 91%
- growth at 0.1 µM (M14): 92%
